Blank lines part the entries; values can stand above or below the compound they belong to.
Experiments:
Histamine H3 receptor [1] = molecular target: T1, Histamine H3 receptor (Rattus norvegicus, UniProt Q9QYN8); assay: Displacement of [3H]NAMH from rat histamine H3 receptor expressed in CHO cells; assay type: cell-based
Histamine H3 receptor [2] = molecular target: T2, Histamine H3 receptor (Homo sapiens, UniProt Q9Y5N1); assay: Displacement of [3H]NAMH from human histamine H3 receptor expressed in CHO cells; assay type: cell-based
[3] = molecular target: Histamine H1 receptor (Homo sapiens) (UniProt P35367); assay: Inhibition of human histamine H1 receptor at 10 uM
Histamine H3 receptor [4] = molecular target: T2, Histamine H3 receptor; assay: Antagonist activity against human histamine H3 receptor assessed as inhibition of R-alpha-methylhistamine induced [35S]GTPgammaS binding; assay type: functional
[5] = molecular target: Histamine H4 receptor (Homo sapiens) (UniProt Q9H3N8); assay: Inhibition of human histamine H4 receptor at 10 uM
[6] = molecular target: Histamine H2 receptor (Homo sapiens) (UniProt P25021); assay: Inhibition of human histamine H2 receptor at 10 uM
Histamine H3 receptor [7] = molecular target: T1, Histamine H3 receptor; assay: Inverse agonist activity at rat histamine H3 receptor assessed as inhibition of R-alpha-methylhistamine induced [35S]GTPgammaS binding; assay type: functional
[8] = Terminal half life in fasted Sprague-Dawley rat at 1 mg/kg, iv after 6 to 24 hrs by LC-MS/MS analysis; assay type: ADME, organism-based; design: dose 1 mg/kg, route intravenous; details: in vivo, read-out: beta t1/2 (converted)
[9] = Systemic clearance in fasted Sprague-Dawley rat at 1 mg/kg, iv after 6 to 24 hrs by LC-MS/MS analysis; assay type: ADME, organism-based; design: dose 1 mg/kg, route intravenous; details: in vivo
[10] = molecular target: Voltage-gated inwardly rectifying potassium channel KCNH2 (Homo sapiens, UniProt Q12809); assay: Inhibition of recombinant human ERG channel expressed in human HEK 293 cells by patch clamp assay; assay type: cell-based, HEK293
[11] = Distribution coefficient log D of the compound at pH 7.4; assay type: physicochemical; details: octanol/water
[12] = Ratio of drug uptake in brain to plasma of fasted Sprague-Dawley rat at 1 mg/kg, iv after 6 to 24 hrs by LC-MS/MS analysis; assay type: ADME, organism-based; design: dose 1 mg/kg, route intravenous; details: read-out: BPR
[13] = Oral bioavailability in fasted Sprague-Dawley rat at 10 mg/kg after 24 hrs by LC-MS/MS analysis; assay type: ADME, organism-based; details: in vivo
Rattus norvegicus = assay: Inhibition of RAMH-induced dipsogenia in Long Evans rat administered as po 15 mins prior to RAMH challenge; assay type: functional
Histamine H3 receptor [14] = molecular target: T2, Histamine H3 receptor; assay: Inverse agonist activity at human histamine H3 receptor assessed as inhibition of R-alpha-methylhistamine induced [35S]GTPgammaS binding; assay type: functional
[15] = Dissociation constant, pKa of the compound; assay type: physicochemical

T2 sequence (Q9Y5N1 whole entry): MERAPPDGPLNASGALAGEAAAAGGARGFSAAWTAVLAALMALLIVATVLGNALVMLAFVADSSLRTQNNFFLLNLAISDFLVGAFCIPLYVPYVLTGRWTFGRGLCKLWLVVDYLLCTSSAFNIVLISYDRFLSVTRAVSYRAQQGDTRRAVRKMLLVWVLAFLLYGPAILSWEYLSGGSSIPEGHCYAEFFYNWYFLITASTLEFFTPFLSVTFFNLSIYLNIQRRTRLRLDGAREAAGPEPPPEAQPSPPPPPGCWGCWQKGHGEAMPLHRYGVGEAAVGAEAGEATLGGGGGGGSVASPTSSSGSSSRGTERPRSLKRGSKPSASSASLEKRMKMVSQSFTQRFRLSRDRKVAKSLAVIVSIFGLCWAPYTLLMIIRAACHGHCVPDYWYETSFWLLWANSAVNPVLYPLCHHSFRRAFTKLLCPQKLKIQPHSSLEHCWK
T1 sequence (Q9QYN8 whole entry): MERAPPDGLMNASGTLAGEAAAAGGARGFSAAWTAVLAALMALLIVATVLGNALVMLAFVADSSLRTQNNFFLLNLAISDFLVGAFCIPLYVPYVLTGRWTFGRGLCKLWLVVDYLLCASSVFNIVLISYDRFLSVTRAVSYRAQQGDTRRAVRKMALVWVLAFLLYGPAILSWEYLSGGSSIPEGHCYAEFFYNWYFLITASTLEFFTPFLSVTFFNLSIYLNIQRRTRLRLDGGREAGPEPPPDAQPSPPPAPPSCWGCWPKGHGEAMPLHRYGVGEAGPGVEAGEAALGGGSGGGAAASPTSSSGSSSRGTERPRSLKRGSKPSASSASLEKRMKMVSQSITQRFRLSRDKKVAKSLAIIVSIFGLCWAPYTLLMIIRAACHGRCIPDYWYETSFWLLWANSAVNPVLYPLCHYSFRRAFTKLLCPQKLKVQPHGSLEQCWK
Sequence of Voltage-gated inwardly rectifying potassium channel KCNH2 (Q12809 whole entry): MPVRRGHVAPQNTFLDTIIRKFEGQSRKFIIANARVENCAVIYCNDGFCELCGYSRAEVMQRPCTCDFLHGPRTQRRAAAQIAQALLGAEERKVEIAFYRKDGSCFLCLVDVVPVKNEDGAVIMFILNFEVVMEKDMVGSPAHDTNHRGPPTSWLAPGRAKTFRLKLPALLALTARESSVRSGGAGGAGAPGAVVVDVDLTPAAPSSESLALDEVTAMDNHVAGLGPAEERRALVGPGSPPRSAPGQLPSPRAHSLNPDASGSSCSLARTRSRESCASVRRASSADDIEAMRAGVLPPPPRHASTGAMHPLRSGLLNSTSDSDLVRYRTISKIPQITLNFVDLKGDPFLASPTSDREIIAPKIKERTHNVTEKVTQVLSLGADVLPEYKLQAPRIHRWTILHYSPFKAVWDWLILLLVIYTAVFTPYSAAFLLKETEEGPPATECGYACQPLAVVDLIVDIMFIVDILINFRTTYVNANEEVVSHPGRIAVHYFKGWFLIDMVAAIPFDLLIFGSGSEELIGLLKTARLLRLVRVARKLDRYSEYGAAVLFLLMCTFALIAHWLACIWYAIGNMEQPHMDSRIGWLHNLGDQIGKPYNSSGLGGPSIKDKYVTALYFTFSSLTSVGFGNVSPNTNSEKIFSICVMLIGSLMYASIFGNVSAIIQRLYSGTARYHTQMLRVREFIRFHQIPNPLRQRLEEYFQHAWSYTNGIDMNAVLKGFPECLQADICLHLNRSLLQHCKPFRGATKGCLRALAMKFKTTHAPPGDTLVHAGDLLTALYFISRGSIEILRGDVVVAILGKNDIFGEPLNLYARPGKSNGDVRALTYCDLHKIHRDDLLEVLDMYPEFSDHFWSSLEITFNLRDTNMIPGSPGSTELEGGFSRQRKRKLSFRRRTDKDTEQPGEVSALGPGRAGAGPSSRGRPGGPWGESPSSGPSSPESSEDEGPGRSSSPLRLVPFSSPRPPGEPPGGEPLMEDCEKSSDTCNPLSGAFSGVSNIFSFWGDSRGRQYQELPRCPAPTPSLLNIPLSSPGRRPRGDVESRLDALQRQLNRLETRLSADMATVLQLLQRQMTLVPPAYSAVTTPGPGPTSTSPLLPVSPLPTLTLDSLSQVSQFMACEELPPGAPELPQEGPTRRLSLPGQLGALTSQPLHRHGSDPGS
Sequence of Histamine H2 receptor (Homo sapiens) (P25021 whole entry): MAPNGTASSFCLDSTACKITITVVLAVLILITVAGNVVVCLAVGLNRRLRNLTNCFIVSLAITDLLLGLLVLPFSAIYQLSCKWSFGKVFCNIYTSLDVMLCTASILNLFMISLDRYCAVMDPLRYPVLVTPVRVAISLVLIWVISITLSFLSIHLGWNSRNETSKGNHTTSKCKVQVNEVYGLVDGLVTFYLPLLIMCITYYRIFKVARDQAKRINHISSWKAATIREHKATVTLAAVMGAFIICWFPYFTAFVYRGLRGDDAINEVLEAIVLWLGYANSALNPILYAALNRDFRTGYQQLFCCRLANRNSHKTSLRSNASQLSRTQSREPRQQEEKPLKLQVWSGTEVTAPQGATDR
Sequence of Histamine H1 receptor (Homo sapiens) (P35367 whole entry): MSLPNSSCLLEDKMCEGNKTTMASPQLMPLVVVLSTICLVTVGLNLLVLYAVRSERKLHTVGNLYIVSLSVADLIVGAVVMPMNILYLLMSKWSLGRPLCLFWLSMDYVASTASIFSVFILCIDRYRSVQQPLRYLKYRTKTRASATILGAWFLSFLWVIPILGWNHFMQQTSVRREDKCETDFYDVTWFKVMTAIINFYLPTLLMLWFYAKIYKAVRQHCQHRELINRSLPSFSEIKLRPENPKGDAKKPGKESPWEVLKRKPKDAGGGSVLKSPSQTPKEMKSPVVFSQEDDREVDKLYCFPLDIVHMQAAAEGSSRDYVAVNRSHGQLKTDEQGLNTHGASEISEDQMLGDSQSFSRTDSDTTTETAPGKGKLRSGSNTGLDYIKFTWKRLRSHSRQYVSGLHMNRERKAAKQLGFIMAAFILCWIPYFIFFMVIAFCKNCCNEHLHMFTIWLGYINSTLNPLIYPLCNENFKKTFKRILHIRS

Compound: C[C@@H]1CCCN1CCCOc1ccc(-c2ccc(=O)[nH]n2)cc1
inhibition [3]: < 11%
Kb (Histamine H3 receptor [4]): 0.4 nM
inhibition [5]: < 11%
inhibition [6]: < 11%

Compound: O=c1ccc(-c2ccc(OCCCN3CCOCC3)cc2)n[nH]1
Ki (Histamine H3 receptor [1]): 822 nM
pKa [15]: 7.1
Ki (Histamine H3 receptor [2]): 767 nM

Continued by falling Ki (Histamine H3 receptor [1]), values first:

Ki (Histamine H3 receptor [1]): 427 nM
Compound: Cn1nc(-c2ccc(OCCCN3CCC[C@@H]3CO)cc2)ccc1=O

Ki (Histamine H3 receptor [1]): 45 nM
Ki (Histamine H3 receptor [2]): 16 nM
Compound: O=c1ccc(-c2ccc(OCCCN3CCCC3)cc2)n[nH]1

Ki (Histamine H3 receptor [1]): 6.3 nM
Kb (Histamine H3 receptor [4]): 0.5 nM
EC50 (Histamine H3 receptor [7]): 2.2 nM
Ki (Histamine H3 receptor [2]): 1.4 nM
half-life [8]: 96 min
clearance [9]: 45 mL/min/kg
logD [11]: 0.8
Kp [12]: 3.5
bioavailability [13]: 39%
EC50 (Histamine H3 receptor [14]): 1 nM
Compound: C[C@@H]1CCCN1CCCOc1ccc(-c2ccc(=O)n(C)n2)cc1
IC50 [10]: 13 µM
ED50 (Rattus norvegicus): 0.14 mg/kg

— ChEMBL document CHEMBL1811886 (J Med Chem, 2011)
